Data reported in article PMC6264278, “Corydaline Inhibits Multiple Cytochrome P450 and UDP-Glucuronosyltransferase Enzyme Activities in Human Liver Microsomes” (Molecules, 2011).

Target: T1, UGT2B7 (Homo sapiens, UniProt P16662)
T1 construct: using pooled human liver microsomes; tissue BD Gentest Co. H161; host or cells: pooled human liver microsomes
T1 sequence (P16662 24-529): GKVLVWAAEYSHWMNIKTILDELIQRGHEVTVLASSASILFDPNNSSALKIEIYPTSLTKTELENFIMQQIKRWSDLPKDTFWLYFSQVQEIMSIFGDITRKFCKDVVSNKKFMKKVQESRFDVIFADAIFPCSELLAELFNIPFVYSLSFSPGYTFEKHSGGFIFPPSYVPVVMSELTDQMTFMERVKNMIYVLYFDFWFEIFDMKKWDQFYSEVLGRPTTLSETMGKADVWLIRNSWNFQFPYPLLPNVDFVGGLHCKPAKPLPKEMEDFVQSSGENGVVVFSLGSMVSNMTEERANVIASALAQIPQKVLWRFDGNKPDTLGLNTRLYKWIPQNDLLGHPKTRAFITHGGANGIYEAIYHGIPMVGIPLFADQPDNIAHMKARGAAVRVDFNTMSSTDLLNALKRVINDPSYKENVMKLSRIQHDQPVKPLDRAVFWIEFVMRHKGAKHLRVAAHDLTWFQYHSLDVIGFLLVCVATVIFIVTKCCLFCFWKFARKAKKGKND
Test: UGT2B7 azidothymidine glucuronidation inhibition in pooled human liver microsomes
Assay type: in vitro ADME
Details: pooled human liver microsomes (H161), 100 μM azidothymidine, no inhibition at 1,000 μM of corydaline
Method: The inhibitory potencies (IC50 values) of corydaline were also determined with UGT assays in the presence and absence of corydaline (final concentrations of 1–1,000 μM with acetonitrile concentration less than 0.5% v/v) using pooled human liver microsomes. 17β-Estradiol 3-glucuronidation, trifluoperazine glucuronidation, propofol glucuronidation, and azidothymidine glucuronidation activities were determined as probe activities for UGT1A1, UGT1A4, UGT1A9, and UGT2B7, respectively, using LC/MS/MS. Incubation mixtures were prepared in a total volume of 100 μL, as follows: Pooled human liver microsomes (0.2 mg/mL for 17β-estradiol, trifluoperazine and azidothymidine; 0.1 mg/mL for propofol), 2 mM UDPGA, 25 μg/mL alamethicin, 10 mM MgCl2, 50 mM tris buffer (pH 7.4), UGT-isoform specific probe substrate (20 μM 17β-estradiol for UGT1A1, 5 μM trifluoperazine for UGT1A4, 10 μM propofol for UGT1A9, or 100 μM azidothymidine for UGT2B7), and various concentrations of corydaline (1−1000 μM). […]
Glucuronides produced from UGT isoform-specific substrates were respectively determined by LC/MS/MS. […] Quantification was performed by SRM of the [M+H]^+ ion for trifluoperazine glucuronide and azidothymidine glucuronide or [M−H]^− for 17β-estradiol 3-glucuronide and propofol glucuronide and the related product ion for each metabolite. […]

COc1cc2c(cc1OC)C1C(C)c3ccc(OC)c(OC)c3CN1CC2 (centres unmarked) [Corydaline, 2,3,9,10-tetramethoxy-13-methyl-5,8,13,13a-tetrahydro-6H-isoquino[3,2-a]isoquinoline]
IC50, UGT2B7 azidothymidine glucuronidation: not inhibited | IC50, UGT2B7 azidothymidine glucuronidation (listed as corydaline): No inhibition *
